Laboratory results published in patent US12509462B2, “3-(phenylsulfonyl)-[1,2,3]triazolo[1,5A]quinazolin-5(4H)-one derivatives” (BIOVERSYS AG, priority 2018, dated 2025).
Values after ≈ are worked out from the molar mass of the structure shown.

How the values were obtained:
[1] = system: MRSA (USA300 isolate); assay: Hemolysis Assay I (exotoxin-mediated lysis of rabbit red blood cells by culture supernatant); type: cell-based, Staphylococcus aureus; details: 30/10/3.3/1.1/0.37 μM compound, values at OD600 of 0.75
[2] = system: Staphylococcus aureus MRSA strain (USA300 isolate); assay: Hemolysis Assay II (exotoxin-mediated lysis of rabbit red blood cells by culture filtrate); type: cell-based; details: Erythrocyte; for minimal effective concentration / IC95: 18 h; for minimal effective concentration: absorbance <2× the average of the complete inhibition control, read-out: Hemolysis assay II MEC (minimal effective concentration); for IC95: read-out: Hemolysis assay II IC95; for IC50: 18 h culture in CA-MHB, rabbit red blood cells
[3] = system: psmα; type: cell-based, Staphylococcus aureus
[4] = system: RNAIII; type: cell-based, Staphylococcus aureus; details: 10 μM compound, two hours, MRSA (USA300 isolate), normalized to rpoD
[5] = system: HepG2; details: human, 48 h
[6] = system: MRSA; assay: MIC by broth microdilution in CA-MHB (CLSI); details: Staphylococcus aureus, 18 h, read-out: MIC on MRSA
Method: Minimal inhibitory concentrations (MIC) were determined by broth microdilution method in cation-adjusted Mueller-Hinton (CA-MHB) broth according to the CLSI guideline. From an overnight culture plate, cells were resuspended in 0.9% (w/v) saline solution and bacterial inoculum was prepared in CA-MHB with 5×10^5 CFU/ml. Compounds were two-fold serially diluted in CA-MHB and 10 μL of this 10× concentrated samples were added into the 96-well plate. 90 μL of bacterial suspension was finally added to the compounds. Plates were covered and incubated without shaking at 35° C. for 18 hours. Every experiment contained an antibiotic as quality control. MIC was determined visually as the lowest concentration of a compound that prevents visible growth of the bacteria and the plates were scanned for documentation.

[7] = Staphylococcus aureus, Erythrocyte

Structure (SMILES) | IC50 [1, 7] | minimal effective concentration [2] | IC95 [2] | IC50 [2] | Downregulation of psmα expression at 10 μM [3] | Downregulation of RNAIII expression at 10 μM [4] | LD50 HepG2 [5] | MIC [6] | IC50 [1]
Cc1ccc(S(=O)(=O)c2nnn3c2[nH]c(=O)c2ccc(Cl)cc23)c(C)c1 [Compound 3, 8-chloro-3-(2,4-dimethylphenyl)sulfonyl-4H-triazolo[1,5-a]quinazolin-5-one] | 5000 nM | 4 µg/mL | 3.45 µg/mL (≈ 8.87 µM) | 1.65 µg/mL (≈ 4.24 µM) | ++ (++ downregulation>100-fold (2 log10)) | ++ (++ downregulation>100-fold (2 log10)) | >=100 μM | ≥ 100 µM | 
COc1ccc2c(=O)[nH]c3c(S(=O)(=O)c4ccc(C)cc4C)nnn3c2c1 [Compound 5, 3-(2,4-dimethylphenyl)sulfonyl-8-methoxy-4H-triazolo[1,5-a]quinazolin-5-one] | 6000 nM | 6 µg/mL | 11.7 µg/mL (≈ 30.3 µM) | 2.05 µg/mL (≈ 5.33 µM) | ++ (++ downregulation>100-fold (2 log10)) | + (+ downregulation>10-fold (1 log10)) | >=100 μM | ≥ 100 µM | 
COc1ccc2c(=O)[nH]c3c(S(=O)(=O)c4ccc(C)cc4Cl)nnn3c2c1 [Compound 12, 3-(2-chloro-4-methyl-phenyl)sulfonyl-8-methoxy-4H-triazolo[1,5-a]quinazolin-5-one] | ~1000 nM | 3 µg/mL | 2.75 µg/mL (≈ 6.79 µM) | 0.85 µg/mL (≈ 2.1 µM) | ++ (++ downregulation>100-fold (2 log10)) | ++ (++ downregulation>100-fold (2 log10)) | >=100 μM | ≥ 100 µM | 1300 nM
COc1ccc2c(=O)[nH]c3c(S(=O)(=O)c4ccc(C)cc4Br)nnn3c2c1 [Compound 18, 3-(2-bromo-4-methyl-phenyl)sulfonyl-8-methoxy-4H-triazolo[1,5-a]quinazolin-5-one] | ~1000 nM | 3 µg/mL | 2.75 µg/mL (≈ 6.12 µM) | 0.95 µg/mL (≈ 2.11 µM) | ++ (++ downregulation>100-fold (2 log10)) | ++ (++ downregulation>100-fold (2 log10)) | >=100 μM | ≥ 100 µM | 800 nM
COc1ccc2c(=O)[nH]c3c(S(=O)(=O)c4ccc(C)cc4C(F)(F)F)nnn3c2c1 [Compound 26, 8-methoxy-3-[4-methyl-2-(trifluoromethyl)phenyl]sulfonyl-4H-triazolo[1,5-a]quinazolin-5-one] | ~1000 nM | 6 µg/mL | 4.15 µg/mL (≈ 9.47 µM) | 1 µg/mL (≈ 2.28 µM) | ++ (++ downregulation>100-fold (2 log10)) | ++ (++ downregulation>100-fold (2 log10)) | >=100 μM | ≥ 100 µM | 700 nM
Cc1ccc(S(=O)(=O)c2nnn3c2[nH]c(=O)c2ccccc23)c(Cl)c1 [Compound 35, 3-(2-chloro-4-methyl-phenyl)sulfonyl-4H-triazolo[1,5-a]quinazolin-5-one] | 1500 nM | 4 µg/mL | 3.7 µg/mL (≈ 9.87 µM) | 1.25 µg/mL (≈ 3.34 µM) |  |  | >=100 μM | ≥ 100 µM | 
Cc1ccc(S(=O)(=O)c2nnn3c2[nH]c(=O)c2ccc(O)cc23)c(C)c1 [Compound 36, 3-(2,4-dimethylphenyl)sulfonyl-8-hydroxy-4H-triazolo[1,5-a]quinazolin-5-one] | 2800 nM | 4 µg/mL | 4.5 µg/mL (≈ 12.1 µM) | 1.7 µg/mL (≈ 4.59 µM) |  |  | >=100 μM | ≥ 100 µM | 
Cc1ccc(S(=O)(=O)c2nnn3c2[nH]c(=O)c2ccccc23)c(Br)c1 [Compound 37, 3-(2-Bromo-4-methyl-phenyl)sulfonyl-4H-triazolo[1,5-a]quinazolin-5-one] | 1500 nM | 4 µg/mL | 3.65 µg/mL (≈ 8.71 µM) | 1.25 µg/mL (≈ 2.98 µM) |  |  | >=100 μM | ≥ 100 µM | 
COc1cccc2c1c(=O)[nH]c1c(S(=O)(=O)c3ccc(C)cc3C)nnn12 [Compound 39, 3-(2,4-dimethylphenyl)sulfonyl-6-methoxy-4H-triazolo[1,5-a]quinazolin-5-one] | 800 nM | 4 µg/mL | 3.25 µg/mL (≈ 8.45 µM) | 0.8 µg/mL (≈ 2.08 µM) |  |  | >=100 μM | ≥ 100 µM | 
Cc1ccc(S(=O)(=O)c2nnn3c2[nH]c(=O)c2ccc(NC4CCOCC4)cc23)c(C)c1 [Compound 49, 3-(2,4-dimethylphenyl)sulfonyl-8-(tetrahydropyran-4-ylamino)-4H-triazolo[1,5-a]quinazolin-5-one] |  | 3 µg/mL | 4.5 µg/mL (≈ 9.92 µM) | 0.75 µg/mL (≈ 1.65 µM) |  |  | 50 µM | ≥ 100 µM | 
Cc1ccc(S(=O)(=O)c2nnn3c2[nH]c(=O)c2cccc(O)c23)c(C)c1 [Compound 50, 3-(2,4-dimethylphenyl)sulfonyl-9-hydroxy-4H-triazolo[1,5-a]quinazolin-5-one] |  | 3 µg/mL | 3.75 µg/mL (≈ 10.1 µM) | 1.05 µg/mL (≈ 2.83 µM) |  |  | >=100 μM | ≥ 100 µM | 
Cc1cc(C)c(S(=O)(=O)c2nnn3c2[nH]c(=O)c2ccccc23)c(Cl)c1 [Compound 51, 3-(2-chloro-4,6-dimethyl-phenyl)sulfonyl-4H-triazolo[1,5-a]quinazolin-5-one] |  | 6 µg/mL | 5.25 µg/mL (≈ 13.5 µM) | 1.9 µg/mL (≈ 4.89 µM) |  |  | >=100 μM | ≥ 100 µM | 
Cc1cc(C)c(S(=O)(=O)c2nnn3c2[nH]c(=O)c2ccccc23)c(Br)c1 [Compound 52, 3-(2-bromo-4,6-dimethyl-phenyl)sulfonyl-4H-triazolo[1,5-a]quinazolin-5-one] |  | 6 µg/mL | 6.1 µg/mL (≈ 14.1 µM) | 1.95 µg/mL (≈ 4.5 µM) |  |  | >=100 μM | ≥ 100 µM | 
Cc1ccc(S(=O)(=O)c2nnn3c2[nH]c(=O)c2ccc(OCCO)cc23)c(C)c1 [Compound 53, 3-(2,4-dimethylphenyl)sulfonyl-8-(2-hydroxyethoxy)-4H-triazolo[1,5-a]quinazolin-5-one] |  | 2 µg/mL | 2.2 µg/mL (≈ 5.31 µM) | 0.7 µg/mL (≈ 1.69 µM) |  |  | >=100 μM | ≥ 100 µM | 
COC(=O)CCCOc1ccc2c(=O)[nH]c3c(S(=O)(=O)c4ccc(C)cc4C)nnn3c2c1 [Compound 55, methyl 4-[[3-(2,4-dimethylphenyl)sulfonyl-5-oxo-4H-triazolo[1,5-a]quinazolin-8-yl]oxy]butanoate] |  | 3 µg/mL | 2.45 µg/mL (≈ 5.21 µM) | 1 µg/mL (≈ 2.13 µM) |  |  | >=100 μM | ≥ 100 µM | 
COCCOc1cc2c(cc1O)c(=O)[nH]c1c(S(=O)(=O)c3ccc(C)cc3C)nnn12 [Compound 58, 3-(2,4-dimethylphenyl)sulfonyl-7-hydroxy-8-(2-methoxyethoxy)-4H-triazolo[1,5-a]quinazolin-5-one] |  | 4 µg/mL | 4.1 µg/mL (≈ 9.22 µM) | 0.9 µg/mL (≈ 2.02 µM) |  |  | >=100 μM | ≥ 100 µM | 
COCCOCCOCCOc1ccc2c(=O)[nH]c3c(S(=O)(=O)c4ccc(C)cc4C)nnn3c2c1 [Compound 59, 3-(2,4-dimethylphenyl)sulfonyl-8-[2-[2-(2-methoxyethoxy)ethoxy]ethoxy]-4H-triazolo[1,5-a]quinazolin-5-one] |  | 8 µg/mL | 6.5 µg/mL (≈ 12.6 µM) | 2.6 µg/mL (≈ 5.03 µM) |  |  | >=100 μM | ≥ 100 µM | 
Cc1ccc(S(=O)(=O)c2nnn3c2[nH]c(=O)c2ccc(OCC4COC(C)(C)O4)cc23)c(C)c1 (stereo not shown) [Compound 60, 8-[(2,2-dimethyl-1,3-dioxolan-4-yl)methoxy]-3-(2,4-dimethylphenyl)sulfonyl-4H-triazolo[1,5-a]quinazolin-5-one] |  | 3 µg/mL | 3.05 µg/mL (≈ 6.29 µM) | 1 µg/mL (≈ 2.06 µM) |  |  | >=100 μM | ≥ 100 µM | 
